Results taken from ChEMBL document CHEMBL1201862, “PubChem BioAssay data set” (2004).
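Assay format: 96-well plates, 48-hour exposure. The concentration for 50% growth inhibition is given as GI50.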 Calls of active or inactive are those of the source. No stated cut-off is given here; in the data, active = GI50 up to about 1.1 µM and inactive = higher. Starred links: 1 amine or outer side, 2 acyl side, 3 side chain; linkers in the order of their positions; H or OH if unused. Non-standard residues stand in square brackets, D forms with d. Residues, ends and D or L forms follow the SMILES beside them. X41 = CSCCCC(N[*:1])C(=O)[*:2]

How the values were obtained:
Assay in all cases: NCI tumour cell line growth inhibition, 48 h
786-0 = system: 786-0
A498 = system: A498
A549 = system: A549
ACHN = system: ACHN
BT-549 = system: BT-549
CAKI-1 = system: CAKI-1
CCRF-CEM = system: CCRF-CEM
COLO 205 = system: COLO 205
EKVX = system: EKVX
HCT-116 = system: HCT-116
HCT-15 = system: HCT-15
HL-60 = system: HL-60
HOP-62 = system: HOP-62
HOP-92 = system: HOP-92
HT-29 = system: HT-29
Hs-578T = system: Hs-578T
IGROV-1 = system: IGROV-1
K562 = system: K562
KM12 = system: KM12
LOX IMVI = system: LOX IMVI
M14 = system: M14
MCF7 = system: MCF7
MDA-MB-231 = system: MDA-MB-231
MDA-MB-435 = system: MDA-MB-435
MDA-N = system: MDA-N
MOLT-4 = system: MOLT-4
Malme-3M = system: Malme-3M
NCI-H226 = system: NCI-H226
NCI-H23 = system: NCI-H23
NCI-H522 = system: NCI-H522
NCI/ADR-RES = system: NCI/ADR-RES
OVCAR-3 = system: OVCAR-3
OVCAR-4 = system: OVCAR-4
OVCAR-5 = system: OVCAR-5
OVCAR-8 = system: OVCAR-8
PC-3 = system: PC-3
RPMI-8226 = system: RPMI-8226
SF-268 = system: SF-268
SF-295 = system: SF-295
SF-539 = system: SF-539
SK-MEL-28 = system: SK-MEL-28
SK-MEL-2 = system: SK-MEL-2
SK-MEL-5 = system: SK-MEL-5
SK-OV-3 = system: SK-OV-3
SN12C = system: SN12C
SNB-19 = system: SNB-19
SR = system: SR
SW-620 = system: SW-620
T47D = system: T47D
TK-10 = system: TK-10
U-251 = system: U-251
UACC-257 = system: UACC-257
UACC-62 = system: UACC-62
UO-31 = system: UO-31
HCC 2998 = system: HCC 2998
NCI-H460 = system: NCI-H460
RXF 393 = system: RXF 393

## CSCCCC(NC(=O)CNC(=O)C1CCCN1C(=O)C(Cc1ccc(O)cc1)NC(=O)C(Cc1ccccc1)NC(=O)C(CCCNC(=N)N)NC(=O)C(CC(=O)O)NC(=O)C1CCCN1C(=O)C(CC(=O)O)NC(=O)C1CCCN1C(=O)C1CCCN1C(=O)CN)C(N)=O (stereo unspecified) (H-GPPDPDRFYPG[X41]-NH2; configuration not given here)
786-0
  GI50: > 50 µM (inactive)
A498
  GI50: > 50 µM (inactive)
A549
  GI50: > 50 µM (inactive)
ACHN
  GI50: > 50 µM (inactive)
BT-549
  GI50: > 50 µM (inactive)
CAKI-1
  GI50: > 50 µM (inactive)
CCRF-CEM
  GI50: > 50 µM (inactive)
COLO 205
  GI50: > 50 µM (inactive)
EKVX
  GI50: > 50 µM (inactive)
HCT-116
  GI50: > 50 µM (inactive)
HCT-15
  GI50: > 50 µM
HL-60
  GI50: > 50 µM (inactive)
HOP-62
  GI50: > 50 µM (inactive)
HOP-92
  GI50: > 50 µM (inactive)
HT-29
  GI50: > 50 µM (inactive)
Hs-578T
  GI50: > 50 µM (inactive)
IGROV-1
  GI50: > 50 µM (inactive)
K562
  GI50: > 50 µM (inactive)
KM12
  GI50: > 50 µM (inactive)
LOX IMVI
  GI50: > 50 µM (inactive)
M14
  GI50: > 50 µM (inactive)
MCF7
  GI50: > 50 µM (inactive)
MDA-MB-231
  GI50: > 50 µM (inactive)
MDA-MB-435
  GI50: > 50 µM (inactive)
MDA-N
  GI50: > 50 µM (inactive)
MOLT-4
  GI50: > 50 µM (inactive)
Malme-3M
  GI50: > 50 µM (inactive)
NCI-H226
  GI50: > 50 µM (inactive)
NCI-H23
  GI50: > 50 µM (inactive)
NCI-H522
  GI50: > 50 µM (inactive)
NCI/ADR-RES
  GI50: > 50 µM (inactive)
OVCAR-3
  GI50: > 50 µM (inactive)
OVCAR-4
  GI50: > 50 µM (inactive)
OVCAR-5
  GI50: > 50 µM (inactive)
OVCAR-8
  GI50: > 50 µM (inactive)
PC-3
  GI50: > 50 µM (inactive)
RPMI-8226
  GI50: > 50 µM (inactive)
SF-268
  GI50: > 50 µM (inactive)
SF-295
  GI50: > 50 µM (inactive)
SF-539
  GI50: > 50 µM (inactive)
SK-MEL-28
  GI50: > 50 µM (inactive)
SK-MEL-2
  GI50: > 50 µM (inactive)
SK-MEL-5
  GI50: > 50 µM (inactive)
SK-OV-3
  GI50: > 50 µM (inactive)
SN12C
  GI50: > 50 µM (inactive)
SNB-19
  GI50: > 50 µM (inactive)
SR
  GI50: > 50 µM (inactive)
SW-620
  GI50: > 50 µM (inactive)
T47D
  GI50: > 50 µM (inactive)
TK-10
  GI50: > 50 µM (inactive)
U-251
  GI50: > 50 µM (inactive)
UACC-257
  GI50: > 50 µM (inactive)
UACC-62
  GI50: > 50 µM (inactive)
UO-31
  GI50: > 50 µM (inactive)

## CCOC(=O)c1c(Cl)nc2ccccc2c1N=[N+]=[N-]
A498
  GI50: > 100 µM (inactive)
A549
  GI50: 66.8 µM (inactive)
ACHN
  GI50: 40.3 µM (inactive)
BT-549
  GI50: 16.4 µM (inactive)
CAKI-1
  GI50: 20.2 µM (inactive)
CCRF-CEM
  GI50: 41 µM (inactive)
COLO 205
  GI50: 21.5 µM (inactive)
EKVX
  GI50: 22.4 µM (inactive)
HCC 2998
  GI50: 80.4 µM (inactive)
HCT-116
  GI50: 20.7 µM (inactive)
HCT-15
  GI50: 18.6 µM
HL-60
  GI50: 67 µM (inactive)
HOP-62
  GI50: 49.3 µM (inactive)
HOP-92
  GI50: 24.7 µM (inactive)
HT-29
  GI50: 19.6 µM (inactive)
Hs-578T
  GI50: 24.9 µM (inactive)
IGROV-1
  GI50: 22 µM (inactive)
K562
  GI50: 69.5 µM (inactive)
KM12
  GI50: 16.2 µM (inactive)
LOX IMVI
  GI50: 20.5 µM (inactive)
M14
  GI50: 19.1 µM (inactive)
MDA-MB-231
  GI50: 16.2 µM (inactive)
MDA-MB-435
  GI50: 21.1 µM (inactive)
MDA-N
  GI50: 21 µM (inactive)
MOLT-4
  GI50: 24.2 µM (inactive)
Malme-3M
  GI50: 34.8 µM (inactive)
NCI-H226
  GI50: 32.1 µM (inactive)
NCI-H23
  GI50: 27.7 µM (inactive)
NCI-H460
  GI50: 23.7 µM (inactive)
NCI-H522
  GI50: 16.7 µM (inactive)
OVCAR-3
  GI50: 19.5 µM (inactive)
OVCAR-4
  GI50: 16.9 µM (inactive)
OVCAR-5
  GI50: 19.3 µM (inactive)
PC-3
  GI50: 32.2 µM (inactive)
RPMI-8226
  GI50: 43.5 µM (inactive)
RXF 393
  GI50: 44.6 µM (inactive)
SF-268
  GI50: 16.4 µM (inactive)
SF-295
  GI50: 23.9 µM (inactive)
SF-539
  GI50: 18.6 µM (inactive)
SK-MEL-28
  GI50: 52.4 µM (inactive)
SK-MEL-2
  GI50: 19.2 µM (inactive)
SK-MEL-5
  GI50: 44.5 µM (inactive)
SK-OV-3
  GI50: 70.5 µM (inactive)
SN12C
  GI50: 16.8 µM (inactive)
SNB-19
  GI50: > 100 µM (inactive)
SR
  GI50: 32.7 µM (inactive)
SW-620
  GI50: 19.5 µM (inactive)
T47D
  GI50: 22.7 µM (inactive)
TK-10
  GI50: 31.9 µM (inactive)
U-251
  GI50: 24.5 µM (inactive)
UACC-257
  GI50: 21.8 µM (inactive)
UO-31
  GI50: 18.7 µM (inactive)
